How the values were obtained:
[1] = molecular target: T1, biotinylated MBL (Mannan Binding Lectin) (Homo sapiens, UniProt P11226); assay: ELLA (Enzyme Linked Lectin Assay), glucose inhibition of MBL binding to coated antigen, Examples C3/C5; settings: glucose as inhibitor, 1.25 mM CaCl2, value only valid for this particular assay
Protocol: The wells were then washed (2 x 200 µl TBS).
Plates were then emptied and washed (3 x 200 µl TBS). […] The results are shown in the graphs in Fig. 1. High absorptions correspond to binding of MBL to the ligand. Baseline absorption corresponds to no binding of MBL to the ligand. […] Therefore, in an optimization step (Example C4) a range of mannose co-polymers having mannose monomer unit contents within the range of 30 % to 50 % were synthesized.
An ELLA assay was carried out as described in Example C3. […] From the inhibition curves, it is possible to calculate an IC50 value for aminodextran and the optimized ligand (Table 6). (The IC50 value is only valid for this particular assay.) TABLE 6

[2] = molecular target: T1, biotinylated MBL (Mannan Binding Lectin); assay: ELLA (Enzyme Linked Lectin Assay), glucose inhibition of MBL binding to coated antigen, Examples A8/A8a
Protocol: Biotinylated MBL was prepared as follows. Biotin-NHS (20 µl, 7 mg/ml in DMSO, -10-15 eq. per MBL monomer) was added to a solution of MBL (3 ml, 0.53 mg) in PBS (3 mL). The solution was gently stirred for 2 h, then transferred to a dialysis tube (MWCO 10-12K) and dialysed against TBS (2 × 1 L) over the course of 24 h. The resulting biotinylated MBL (0.2 mg/ml) in TBS was used without further purification.
The wells were then washed (2x200 µl PBS). ConA-HRP 1% (w/v)(100 µl) in PBS was added and incubated for 1 h. Plates were then emptied and washed (3x200 µl PBS). […] The wells were then washed (2x200 µl TBS). […] Plates were then emptied and washed (3x200 µl TBS).

T1 sequence (P11226 21-248): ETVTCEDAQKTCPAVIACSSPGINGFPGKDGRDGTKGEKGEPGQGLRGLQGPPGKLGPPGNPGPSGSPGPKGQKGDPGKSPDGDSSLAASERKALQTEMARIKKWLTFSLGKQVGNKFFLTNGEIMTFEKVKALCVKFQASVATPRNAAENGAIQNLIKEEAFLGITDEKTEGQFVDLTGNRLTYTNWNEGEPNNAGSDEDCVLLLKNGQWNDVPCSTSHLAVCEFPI

## OC[C@H]1OC(O)[C@H](O)[C@@H](O)[C@@H]1O (stereo partly drawn) [glucose]
[1]; coated antigen: 35 mol% Man Copolymer
  IC50: 13 mM
[1]; coated antigen: Aminodextran
  IC50: 23 mM
[2]; coated antigen: AmDex 150K (aminodextran), dilutions of glucose 100 mM to 0 mM, read-out: MBL affinity (IC50) or Abs(0 mM Glc)
  IC50: 9.7 mM
[2]; coated antigen: Polymer of Example A4a, dilutions of glucose 100 mM to 0 mM, read-out: MBL affinity (IC50) or Abs (0 mM Glc)
  IC50: 50 to 80 mM
[2]; glucose inhibiting MBL binding to plate coated with 40 mol% mannose polymer of Example A4 (Example A8), TBS, 1.25 mM CaCl2, pH 7.4, read-out: IC50
  IC50: 16.8 mM
[2]; glucose inhibiting MBL binding to plate coated with 80 mol% mannose polymer of Example A4a, TBS, 1.25 mM CaCl2, pH 7.4, read-out: IC50
  IC50: 50 to 80 mM

Reference: patent publication EP1955072B1, “FLEXIBLE CARBOHYDRATE-BEARING POLYMER” (PreciSense A/S, priority 2005, dated 2007)
